Assay results: ChEMBL document CHEMBL2406925, “Confirmation of quinolone-induced formation of gyrase-DNA conjugates using AFM” (Bioorg Med Chem Lett, 2013)
Calls of active or inactive are those of the source. The rule behind the calls is not given here.

Experiments:
Escherichia coli [1] = experiment: Stabilization of reversible Escherichia coli DNA gyrase-pBR322 DNA complex at 20 uM after 15 mins by AFM image analysis
Escherichia coli [2] = experiment: Induction of Escherichia coli DNA gyrase-mediated pBR322 DNA cleavage at 5 to 20 uM after 30 mins by agarose gel electrophoresis

Which Activity (Escherichia coli [1]) does the source give for CCn1cc(C(=O)O)c(=O)c2cc(F)c(N3CCNCC3)cc21 here?
Its Activity is “Active”.

And the Activity (Escherichia coli [2])?
Its Activity is “Active”.
